Data: patent US20240246920A1, “TRIAZOLE DERIVATIVES WITH ANTIFUNGAL ACTIVITY” (King's College London, priority 2020, published 2024)
≈ marks a conversion by molar mass, not a printed value.

What was measured:
C. parapsilosis NCPF3209 = test: microbe, parasite or virus in culture; type: cell-based, Candida parapsilosis; conditions: Lodderomyces parapsilosis, NCPF3209; Table 4, common panel; 24 hours, ≥50% inhibition; read-out: MIC C. parapsilosis NCPF3209
Protocol: (§1) The minimum inhibitory concentration of test compounds were determined in a panel of Candida species (see Table 4 below), using the a serial dilution method in 96-well plates using the following protocol.
(§2) Starter cultures of fungal strains to be tested were grown in 3 mL of RPMI 2% glucose media incubated at 37° C. with shaking at 200 rpm overnight. The culture media used was 900 mL H2O; 10.4 g RPMI 1640 (with L-glutamine and a pH indicator but without bicarbonate); 34.5 g MOPS and 18 g glucose. The pH of the media was adjusted to 7.0 with 1 M sodium hydroxide.
(§3) Solutions of the compound to be tested were prepared by dissolving the compound in DMSO and subsequently into media to the desired concentrations. […] The last two rows of each plate were control rows containing the culture media alone and the media plus fungi.
(§4) The fungi starter cultures were diluted 1:10 in water in cuvettes. This was then further diluted to an optical density (OD600) of 0.01 in media. 100 μL of the fungi was added to each well giving a starting concentration of fungus of 0.5-5×10^5/mL. One species of fungus was used on each plate. The plates were then held at 37° C. for 24 hours.
(§5) A plate reader was used to measure growth in each well at OD530 nm and the MIC was determined for each test compound. The MIC is defined as the lowest concentration giving rise to inhibition of ≥50% of that of the drug-free control well containing the fungus and media.

C. albicans NCPF3281 = test: Candida panel MIC, serial dilution in 96-well plates; type: cell-based, Candida albicans; conditions: Candida albicans, NCPF3281; Table 4, common panel; 24 hours, ≥50% inhibition; read-out: MIC C. albicans NCPF3281
Protocol: as §1, §2
(§6) Solutions of the compound to be tested were prepared by dissolving the compound in DMSO and subsequently into media to the desired concentrations. 200 μL of compound solution was then added to the wells of the 96-well plate using a serial dilution method row-by row of the plate to give a compound concentration gradient across the plate of from 128 μg/mL to 0.25 μg/mL. The last two rows of each plate were control rows containing the culture media alone and the media plus fungi.
as §4, §5

Candida auris TDG2211 = test: microbe, parasite or virus in culture; type: cell-based; conditions: Candidozyma auris, TDG2211; Table 4, extended panel; 24 hours, ≥50% inhibition; read-out: MIC Candida auris TDG2211
Protocol: as §1, §2, §3, §4, §5
(§7) The Candida auris strains shown in Table 7 were either taken from the National Collection of Pathogenic Fungi (NCPF) or collected as part of ongoing surveillance studies. The strains were characterised as follows.

Candida auris TDG2506 = test: microbe, parasite or virus in culture; type: cell-based; conditions: Candidozyma auris, TDG2506; Table 4, extended panel; 24 hours, ≥50% inhibition; read-out: MIC Candida auris TDG2506
Protocol: as §1, §2, §3, §4, §5, §7

C. krusei NCPF3876 = test: microbe, parasite or virus in culture; type: cell-based, Candida krusei; conditions: Pichia kudriavzevii, NCPF3876; Table 4, common panel; 24 hours, ≥50% inhibition; read-out: MIC C. krusei NCPF3876
Protocol: as §1, §2, §3, §4, §5

C. auris 8977 = test: Candida panel MIC, serial dilution in 96-well plates; type: cell-based, Candida auris; conditions: Candidozyma auris, 8977; Table 4, extended panel; 24 hours, ≥50% inhibition; read-out: MIC C. auris 8977
Protocol: as §1, §2, §3, §4, §5, §7

C. auris 8971 = test: as above; type: cell-based, Candida auris; conditions: Candidozyma auris, 8971; Table 4, extended panel; 24 hours, ≥50% inhibition; read-out: MIC C. auris 8971
Protocol: as §1, §2, §3, §4, §5, §7

C. auris 8984 = test: as above; type: cell-based, Candida auris; conditions: Candidozyma auris, 8984; Table 4, extended panel; 24 hours, ≥50% inhibition; read-out: MIC C. auris 8984
Protocol: as §1, §2, §3, §4, §5, §7

Candida auris TDG2512 = test: as above; type: cell-based; conditions: Candidozyma auris, TDG2512; Table 4, extended panel; 24 hours, ≥50% inhibition; read-out: MIC Candida auris TDG2512
Protocol: as §1, §2, §6, §4, §5

Candida auris TDG1102 = test: as above; type: cell-based; conditions: Candidozyma auris, TDG1102; Table 4, extended panel; 24 hours, ≥50% inhibition; read-out: MIC Candida auris TDG1102
Protocol: as §1, §2, §6, §4, §5

C. auris TDG1912 = test: as above; type: cell-based; conditions: Candidozyma auris, TDG1912; Table 4; 24 hours, ≥50% inhibition; read-out: MIC C. auris TDG1912
Protocol: as §1, §2, §6, §4, §5

C. tropicalis NCPF8760 = test: as above; type: cell-based; conditions: NCPF8760, Table 4, common panel, 24 hours, ≥50% inhibition, read-out: MIC C. tropicalis NCPF8760
Protocol: as §1, §2, §6, §4, §5

C. glabrata NCPF8018 = test: as above; type: cell-based, Candida glabrata; conditions: Nakaseomyces glabratus, NCPF8018; Table 4, common panel; 24 hours, ≥50% inhibition; read-out: MIC C. glabrata NCPF8018
Protocol: as §1, §2, §3, §4, §5

Row | Structure (SMILES) | MIC (C. parapsilosis NCPF3209) [µg/mL] | MIC (C. albicans NCPF3281) [µg/mL] | MIC (Candida auris TDG2211) [µg/mL] | MIC (Candida auris TDG2506) [µg/mL] | MIC (C. krusei NCPF3876) [µg/mL] | MIC (C. auris 8977) [µg/mL] | MIC (C. auris 8971) [µg/mL] | MIC (C. auris 8984) [µg/mL] | MIC (Candida auris TDG2512) [µg/mL] | MIC (Candida auris TDG1102) [µg/mL] | MIC (C. auris TDG1912) [µg/mL] | MIC (C. tropicalis NCPF8760) [µg/mL] | MIC (C. glabrata NCPF8018) [µg/mL]
1 | OC(CN1CCC(N2CCC(Nc3ncc(F)cn3)CC2)CC1)(Cn1cncn1)c1ccc(F)cc1F (stereo not drawn) [Example 10, 2-(2,4-Difluorophenyl)-1-(4-((5-fluoropyrimidin-2-yl)amino)-[1,4′-bipiperidin]-1′-yl)-3-(1H-1,2,4-triazol-1-yl)propan-2-ol] | 0.125 (≈ 0.242 µM) | 0.015 (≈ 0.029 µM) | 64 (≈ 124 µM) | 8 (≈ 15.5 µM) | 32 (≈ 61.9 µM) | 1 (≈ 1.94 µM) | 0.5 (≈ 0.968 µM) | 0.5 (≈ 0.968 µM) | 0.5 (≈ 0.968 µM) | 4 (≈ 7.74 µM) | 4 (≈ 7.74 µM) | 64 (≈ 124 µM) | 64 (≈ 124 µM)
2 | OC(CN1CCC(N2CCC(Nc3ccccc3)CC2)CC1)(Cn1cncn1)c1ccc(F)cc1F (stereo not drawn) [Example 14, 2-(2,4-difluorophenyl)-1-(4-(phenylamino)-[1,4′-bipiperidin]-1′-yl)-3-(1H-1,2,4-triazol-1-yl)propan-2-ol] | ≤ 0.125 | ≤ 0.125 | ≤ 0.125 | 2 (≈ 4.03 µM) | 4 (≈ 8.05 µM) | 0.25 (≈ 0.503 µM) | 0.25 (≈ 0.503 µM) | 1 (≈ 2.01 µM) | 0.25 (≈ 0.503 µM) | 1 (≈ 2.01 µM) | 1 (≈ 2.01 µM) | 32 (≈ 64.4 µM) | 16 (≈ 32.2 µM)
3 | OC(CN1CC2CN(c3ncc(F)cn3)CC2C1)(Cn1cncn1)c1ccc(F)cc1F (stereo not drawn) [Example 15, 2-(2,4-difluorophenyl)-1-(5-(5-fluoropyrimidin-2-yl)hexahydropyrrolo[3,4-c]pyrrol-2(1H)-yl)-3-(1H-1,2,4-triazol-1-yl)propan-2-ol] | 0.125 (≈ 0.281 µM) | 0.12 (≈ 0.269 µM) | 4 (≈ 8.98 µM) | > 128 | 4 (≈ 8.98 µM) | 1 (≈ 2.24 µM) | 0.5 (≈ 1.12 µM) | 32 (≈ 71.8 µM) | 4 (≈ 8.98 µM) | 8 (≈ 18 µM) | 8 (≈ 18 µM) | 8 (≈ 18 µM) | 1 (≈ 2.24 µM)
4 | OC(CN1C[C@H]2CC(Nc3ccc(Cc4ccccc4)cc3)C[C@H]2C1)(Cn1cncn1)c1ccc(F)cc1F (stereo partly drawn) [Example 16, 1-((3aR,6aS)-5-((4-benzylphenyl)amino)hexahydrocyclopenta[c]pyrrol-2(1H)-yl)-2-(2,4-difluorophenyl)-3-(1H-1,2,4-triazol-1-yl)propan-2-ol] | ≤ 0.125 | ≤ 0.125 | ≤ 0.125 | 0.5 (≈ 0.944 µM) | ≤ 0.125 | ≤ 0.125 | ≤ 0.125 | 1 (≈ 1.89 µM) | ≤ 0.125 | 1 (≈ 1.89 µM) | 1 (≈ 1.89 µM) | 1 (≈ 1.89 µM) | ≤ 0.125
5 | OC(CN1CCC(Nc2ccc(Cc3ccc(F)cc3)cc2)CC1)(Cn1cncn1)c1ccc(F)cc1F (stereo not drawn) [Example 30, 2-(2,4-difluorophenyl)-1-(4-((4-(4-fluorobenzyl)phenyl)amino)piperidin-1-yl)-3-(1H-1,2,4-triazol-1-yl)propan-2-ol] | ≤ 0.125 | ≤ 0.125 | ≤ 0.125 | ≤ 0.125 | ≤ 0.125 | ≤ 0.125 | ≤ 0.125 | ≤ 0.125 | ≤ 0.125 | ≤ 0.125 | ≤ 0.125 | ≤ 0.125 | ≤ 0.125
6 | OC(CN1CCC(Nc2ccc(OCc3ccncc3)cc2)CC1)(Cn1cncn1)c1ccc(F)cc1F (stereo not drawn) [Example 81] | 0.00781 (≈ 0.015 µM) | 0.00781 (≈ 0.015 µM) | 0.0313 (≈ 0.0601 µM) | 0.125 (≈ 0.24 µM) | 0.125 (≈ 0.24 µM) | 0.0156 (≈ 0.03 µM) | 0.0156 (≈ 0.03 µM) | 0.125 (≈ 0.24 µM) | 0.00781 (≈ 0.015 µM) | 0.0625 (≈ 0.12 µM) | 0.0313 (≈ 0.0601 µM) | 0.5 (≈ 0.96 µM) | 2 (≈ 3.84 µM)
